In brackets after ≈: the same amount, converted by molar mass.
Assays:
HepG2 = assay: Antiproliferative activity against human HepG2 cells incubated for 48 hrs by MTT assay; type: functional, cell-based; conditions: HepG2, 48 h
[1] = Stability of the compound; type: physicochemical
Mus musculus = assay: Toxicity in […] HepA cells xenografted KM mouse assessed as reduction in body weight at 18 to 72 mg/kg, iv dosed for 10 days relative to untreated control; type: organism-based; set-up: scale not given: the % may be the effect or the level left; conditions: in vivo, 240 h
[2] = Antitumor activity against […] HepA cells xenografted in KM mouse assessed as inhibition of tumor weight at 18 mg/kg, iv dosed for 10 days relative to untreated control; type: functional; conditions: 240 h, read-out: TGI
[3] = Antitumor activity against […] HepA cells xenografted in KM mouse assessed as inhibition of tumor weight at 36 mg/kg, iv dosed for 10 days relative to untreated control; type: functional; conditions: 240 h, read-out: TGI
[4] = Antitumor activity against […] HepA cells xenografted in KM mouse assessed as inhibition of tumor weight at 72 mg/kg, iv dosed for 10 days relative to untreated control; type: functional; conditions: 240 h, read-out: TGI

| Structure (SMILES) | IC50 (HepG2) | Stability [1] | other results |
| --- | --- | --- | --- |
| COC(=O)CCC[C@@H]1NC[C@H]2CCCN3CCC[C@H]1[C@H]23 | 1650 µg/mL (≈ 5890 µM) |  |  |
| CCOC(=O)CCC[C@@H]1NC[C@H]2CCCN3CCC[C@H]1[C@H]23 | 223 µg/mL (≈ 757 µM) |  |  |
| CCCOC(=O)CCC[C@@H]1NC[C@H]2CCCN3CCC[C@H]1[C@H]23 | 196 µg/mL (≈ 635 µM) |  |  |
| CC(C)OC(=O)CCC[C@@H]1NC[C@H]2CCCN3CCC[C@H]1[C@H]23 | 93.1 µg/mL (≈ 302 µM) |  |  |
| CCCCOC(=O)CCC[C@@H]1NC[C@H]2CCCN3CCC[C@H]1[C@H]23 | 136 µg/mL (≈ 421 µM) |  |  |
| COC(=O)CCC[C@H]1[C@H]2CCCN3CCC[C@H](CN1C(=O)c1ccc(N(CCCl)CCCl)cc1)[C@@H]23 | 167 µg/mL (≈ 319 µM) | Unstable |  |
| CCOC(=O)CCC[C@H]1[C@H]2CCCN3CCC[C@H](CN1C(=O)c1ccc(N(CCCl)CCCl)cc1)[C@@H]23 | 91.2 µg/mL (≈ 169 µM) | Unstable |  |
| CCCOC(=O)CCC[C@H]1[C@H]2CCCN3CCC[C@H](CN1C(=O)c1ccc(N(CCCl)CCCl)cc1)[C@@H]23 | 44.6 µg/mL (≈ 80.7 µM) | Unstable |  |
| CC(C)OC(=O)CCC[C@H]1[C@H]2CCCN3CCC[C@H](CN1C(=O)c1ccc(N(CCCl)CCCl)cc1)[C@@H]23 | 2.39 µg/mL (≈ 4.33 µM) | Unstable |  |
| CCCCOC(=O)CCC[C@H]1[C@H]2CCCN3CCC[C@H](CN1C(=O)c1ccc(N(CCCl)CCCl)cc1)[C@@H]23 | 25 µg/mL (≈ 44.1 µM) | Unstable |  |
| O=C(CCC[C@H]1[C@H]2CCCN3CCC[C@H](CN1Cc1ccccc1)[C@@H]23)Nc1ccc(N(CCCl)CCCl)cc1 | 0.47 µg/mL (≈ 0.822 µM) |  | Activity (Mus musculus): <= 20%; inhibition in vivo at 18 mg/kg [2]: 42.5%; inhibition in vivo at 36 mg/kg [3]: 47.3%; inhibition in vivo at 72 mg/kg [4]: 58.2% |
| O=C(CCC[C@H]1[C@H]2CCCN3CCC[C@H](CN1Cc1ccccc1)[C@@H]23)OCc1ccc(N(CCCl)CCCl)cc1 | 1.63 µg/mL (≈ 2.78 µM) |  |  |
| O=C(CCC[C@H]1[C@H]2CCCN3CCC[C@H](CN1Cc1ccccc1)[C@@H]23)N(CCCl)CCCl | 2.74 µg/mL (≈ 5.7 µM) |  |  |
| N[C@@H](Cc1ccc(N(CCCl)CCCl)cc1)C(=O)O [MELPHALAN] | 0.41 µg/mL (≈ 1.34 µM) |  |  |
| O=C1CCC[C@@H]2[C@H]3CCCN4CCC[C@H](CN12)[C@@H]34 [SOPHORIDINE] | 1160 µg/mL (≈ 4670 µM) |  |  |

Source: ChEMBL document CHEMBL3616419, “Synthesis, structure-activity relationship and biological evaluation of novel nitrogen mustard sophoridinic acid derivatives as potential anticancer agents” (Bioorg Med Chem Lett, 2015)
